Test systems include MDA-MB-435; MDA-MB-231; M19-MEL; LXFL 529; HOP-18; DMS-114; DMS-273; KM-20L2.
Assay in all cases: NCI tumour cell line growth inhibition, 48 h

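Method: 48-hour compound exposure of cells in 96-well plates, five concentrations, linear interpolation of endpoints. GI50: concentration for 50% inhibition of growth.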 Calls of active or inactive are those of the source. Cut-off read from the data, not from the text of the source: active = GI50 up to about 1.1 µM and inactive = higher.

`CN(C)CCNC1=Nc2ccccc2C(=O)N2CSCC12` (stereo not drawn): the GI50 in the test on MDA-MB-435 and in the test with MDA-MB-231 was > 100 µM (inactive) in each case.
Consider `N#Cc1c(NCCc2ccc(F)cc2)c2ccccc2n2c1nc1ccccc12`, for which the figures for the GI50 in the test on MDA-MB-435 and in the test with MDA-MB-231 were 73.5 µM (inactive) and 10 µM (inactive), respectively.
For `CCCCCCCC(CC(=O)NC(CO)C(=O)NC(CO)CC(C)C)OC(=O)CC(CCCCCCC)OC(=O)CC(CCCCCCC)OC1OC(C)C(O)C(OC2OC(C)C(OC(C)=O)C(O)C2O)C1O` (stereo not drawn), in that order: 6.53 µM (inactive) and 7.91 µM (inactive).
In the case of `CN(C)c1ccc(/C=C/C(=O)CC(=O)/C=C/c2ccc(N(C)C)cc2)cc1`, the GI50 was > 100 µM (inactive) in the test on MDA-MB-435 and 85.1 µM (inactive) in the test with MDA-MB-231.
In the case of `C#CC1(O)CCCCCCCCC2(CCCCCCCC1)OCCO2`, in the test on MDA-MB-435, the GI50 is 19.4 µM (inactive).
Take `COc1ccc2nc3c4c(nccc4c2c1)-c1ncccc1C3=O`: the GI50 in the test on MDA-MB-435 is 0.0427 µM (active); in the test with MDA-MB-231 it was 0.494 µM (active).
For `NCCCN(CCCCN(CCCN)Cc1ccc2ccccc2c1)Cc1ccc2ccccc2c1`, in that order: 2.2 µM (inactive) and 3.18 µM (inactive).
For `COC(=O)C1=C(O)CCCC(C2CCCCC(=O)C2C(=O)OC)=C1` (stereo not drawn), in that order: > 100 µM (inactive) and 46.5 µM (inactive).
As for `COc1cc(/C=N/N=C(\N)NO)cc(Cl)c1O`, the GI50 in the test on M19-MEL was 27.8 µM (inactive); in the test on LXFL 529, 44 µM (inactive); with HOP-18, 19.2 µM (inactive); with DMS-114 it was 34.2 µM (inactive).
Regarding `CC1=CC(O)(c2ccccc2)C(N2CCOCC2)N1O` (stereo not drawn), the GI50 in the test with MDA-MB-435 and in the test with MDA-MB-231 was > 100 µM (inactive) in each case.
As for `Cn1c(=S)c2nc(SCc3cccnc3)[nH]c2n(C)c1=O`, the GI50 in the test with MDA-MB-435 and in the test with MDA-MB-231 was > 100 µM (inactive) throughout.
As for `NCCCN(CCCN(C(=O)Nc1ccccc1)c1ccccc1)C(=O)Nc1ccccc1`, the GI50 in the test on MDA-MB-231 is 59.6 µM (inactive).
In the case of `CCCCCC(C(O)C#N)C(O)(C(F)(F)F)C(F)(F)F` (stereo not drawn), the GI50 in the test with MDA-MB-435 and in the test with MDA-MB-231 was > 10 µM (inactive) throughout.
With `CC(=O)Oc1cccc2c1C(=O)CCCC2`, the GI50 in the test with MDA-MB-435 and with MDA-MB-231 was > 100 µM (inactive) throughout.
With `CCOc1ccc(NC(=S)N/C=C(/C(C)=O)C(=O)Nc2ccccc2C)cc1`, the GI50 in the test with MDA-MB-435 and in the test on MDA-MB-231 was > 100 µM (inactive) in each case.
Turning to `O=C1NN=C2C=C(c3ccc(Cl)cc3)CC(c3cccc(Br)c3)C12` (stereo not drawn), the GI50 was 77.1 µM (inactive) in the test with MDA-MB-435 and 30.4 µM (inactive) in the test on MDA-MB-231.
For the compound `CC1(C)C(=S)C(C)(C)C1=S`, the GI50 with MDA-MB-435 and in the test on MDA-MB-231 was > 100 µM (inactive) in each case.
As to `c1ccc2c(c1)CC1c3[nH]c4ccccc4c3CCN21` (stereo not drawn), the GI50 in the test on MDA-MB-435 and in the test on MDA-MB-231 was > 10 µM (inactive) each time.
Consider `CC12CCC3c4ccc(O)cc4CCC3C1C/C(=N\O)C2O` (stereo not drawn), for which the GI50 in the test with MDA-MB-435 and in the test on MDA-MB-231 was > 100 µM (inactive) in each case.
Turning to `CC(C)(C)OC(=O)NC(Cc1ccccc1)C(=O)OCN1C(=O)C2C3C=CC(C2C1=O)C1C2C(=O)N(COC(=O)C(Cc4ccccc4)NC(=O)OC(C)(C)C)C(=O)C2C31` (stereo not drawn), the figures for the GI50 in the test with MDA-MB-435 and with MDA-MB-231 were 53.7 µM (inactive) and 29.7 µM (inactive), respectively.
For the compound `C=C1CC(CC)(CCN2C(=O)c3ccccc3C2=O)OC1=O` (stereo not drawn), the GI50 with LXFL 529 is 13.6 µM (inactive); with DMS-273, 11.4 µM (inactive); in the test with KM-20L2 it was 15.8 µM (inactive); in the test with DMS-114, 19.2 µM (inactive).
For `CC(=O)NS(=O)(=O)c1ccc(NC(=O)COC(=O)c2cccc3c(=O)c4ccccc4[nH]c23)cc1`, the GI50 in the test with M19-MEL, in the test on HOP-18, in the test on DMS-273 and with DMS-114 was > 100 µM (inactive) in each case.
Consider `O=C(O)c1cc2c(s1)C(=O)c1sccc1C2=O`, for which the GI50 in the test with M19-MEL was 1.24 µM (inactive); in the test on MDA-MB-435, 0.774 µM (active); in the test on MDA-MB-231, 9.73 µM (inactive); with HOP-18, 5.52 µM (inactive); in the test on DMS-273, 10.9 µM (inactive); with KM-20L2, 19.2 µM (inactive). For the same compound, in the test with DMS-114, the GI50 was 3.34 µM (inactive).
`c1ccc2c(c1)c1c(n2CCOCCN2CCOCC2)CCCC1`: in the test with MDA-MB-231, the GI50 is 17.3 µM (inactive).
As for `COc1ccc(S(=O)(=O)c2nnc(S(=O)(=O)Cc3ccccc3)s2)cc1`, the GI50 is 22.5 µM (inactive) in the test on MDA-MB-435 and 17.5 µM (inactive) in the test with MDA-MB-231.
Take `Cc1ccc(-c2ccc(Nc3c4ccccc4nc4ccccc34)cc2)cn1`: in the test on MDA-MB-435, the GI50 is 4.43 µM (inactive).
On to `CN1CCN(c2ccc3nc(C4=C(O)C(=O)[C@@H]5C(=C4O)N=C(CO)N5C)[nH]c3n2)CC1`, for which the GI50 in the test with MDA-MB-435 is 93.8 µM (inactive); in the test with MDA-MB-231 it was 62.5 µM (inactive).
Taken in the same sequence, the figures for `CC[C@@H]1CC[C@@H]2[C@H](CC[C@]3(C)[C@@H](O)CC[C@@H]23)[C@H]1CO` were 66.1 µM (inactive) and > 100 µM (inactive).
Take `COC(=O)C(=O)C(C(=O)C(=O)Nc1ccc(OC)cc1[N+](=O)[O-])c1nc2ccc([N+](=O)[O-])cc2nc1O` (stereo not drawn): the GI50 with M19-MEL, with LXFL 529, in the test with HOP-18, in the test with KM-20L2 and with DMS-114 was > 100 µM (inactive) each time.

The values are drawn from ChEMBL document CHEMBL1201862, “PubChem BioAssay data set” (2004).
